Results reported in patent publication US9321768B2, “Indoles as respiratory syncytial virus antiviral agents” (JANSSEN SCIENCES IRELAND UC, priority 2010, dated 2016).
Like-named read-outs stand apart in the source and are kept apart here.

What was measured:
[1] = Cytotoxicity in HeLa cells, ATP content (ATPlite kit); type: cell-based; conditions: human
Method: (§1) Black 96-well clear-bottom microtiter plates (Corning, Amsterdam, The Netherlands) were filled in duplicate using a customized robot system with serial 4-fold dilutions of compound in a final volume of 50 μl culture medium [RPMI medium without phenol red, 10% FBS, 0.04% gentamycin (50 mg/ml) and 0.5% DMSO]. Then, 100 μl of a HeLa cell suspension (5×10^4 cells/ml) in culture medium was added to each well followed by the addition of 50 μl rgRSV224 (MOI=0.02) virus in culture medium using a multidrop dispenser (Thermo Scientific, Erembodegem, Belgium). rgRSV224 virus is an engineered virus that includes an additional GFP gene (Hallak et al, 2000) and was in-licensed from the NIH (Bethesda, Md., USA). Medium, virus- and mockinfected controls were included in each test. Cells were incubated at 37° C. in a 5% CO2 atmosphere. Three days post-virus exposure, viral replication was quantified by measuring GFP expression in the cells by a MSM laser microscope (Tibotec, Beerse, Belgium). The EC50 was defined as the 50% inhibitory concentration for GFP expression. In parallel, compounds were incubated for three days in a set of white 96-well microtitier plates (Corning) and the cytotoxicity of compounds in HeLa cells was determined by measuring the ATP content of the cells using the ATPlite kit (PerkinElmer, Zaventem, Belgium) according to the manufacturer's instructions. The CC50 was defined as the 50% concentration for cytotoxicity.

rgRSV224 virus = assay: microbe, parasite or virus in culture; type: cell-based, respiratory syncytial virus (RSV); conditions: human respiratory syncytial virus, HeLa, 72 h, read-out: WT activity EC50
Method: as §1

[2] = HeLa cells, three days incubation, ATP content, read-out: Toxicity CC50

Row | Compound | CC50 at 3 days [1] [nM] | EC50 (rgRSV224 virus) [nM] | CC50 at 3 days [1, 2] [nM]
1 | O=c1n(Cc2c(I)c3ccc(Cl)cc3n2CCCCO)c2cnccc2n1C1CC1 [Compound 15, 3-((6-Chloro-1-(4-hydroxybutyl)-3-iodo-1H-indol-2-yl)methyl)-1-cyclopropyl-1H-imidazo[4,5-c]pyridin-2(3H)-one] | > 9840 | 76.7 | 
2 | O=c1n(Cc2cc3ccc(Cl)cc3n2CCCCO)c2cnccc2n1C1CC1 [Compound 16, 3-((6-Chloro-1-(4-hydroxybutyl)-1H-indol-2-yl)methyl)-1-cyclopropyl-1H-imidazo[4,5-c]pyridin-2(3H)-one] | > 9840 | 124 | 
3 | O=c1n(Cc2cc3cc(Br)ccc3n2CCCCO)c2cnccc2n1C1CC1 [Compound 4, 3-((5-bromo-1-(4-hydroxybutyl)-1H-indol-2-yl)methyl)-1-cyclopropyl-1H-imidazo[4,5-c]pyridin-2(3H)-one] |  | 1.12 | 48700
4 | O=c1n(Cc2cc3cc(F)ccc3n2CCCCO)c2cnccc2n1C1CC1 [Compound 9, 1-Cyclopropyl-3-((5-fluoro-1-(4-hydroxybutyl)-1H-indol-2-yl)methyl)-1H-imidazo[4,5-c]pyridin-2(3H)-one] | 50300 | 29.4 | 
5 | O=c1n(Cc2cc3cc(Cl)ccc3n2CCCCO)c2cnccc2n1C1CC1 [Compound 7, 3-((5-Chloro-1-(4-hydroxybutyl)-1H-indol-2-yl)methyl)-1-cyclopropyl-1H-imidazo[4,5-c]pyridin-2(3H)-one] | 47600 | 2.24 | 
6 | CS(=O)(=O)CCCn1c(Cn2c(=O)n(C3CC3)c3ccncc32)cc2cc(Br)ccc21 [Compound 2, 3-((5-bromo-1-(3-(methylsulfonyl)propyl)-1H-indol-2-yl)methyl)-1-cyclopropyl-1H-imidazo[4,5-c]pyridine-2(3H)-one] | > 9840 | 0.288 | 
7 | COc1ccc2c(c1)cc(Cn1c(=O)n(C3CC3)c3ccncc31)n2CCCCO [Compound 10, 1-Cyclopropyl-3-((1-(4-hydroxybutyl)-5-methoxy-1H-indol-2-yl)methyl)-1H-imidazo[4,5-c]pyridin-2(3H)-one] | > 9840 | 38.3 | 
8 | N#CCCCCn1c(Cn2c(=O)n(C3CC3)c3ccncc32)cc2cc(Br)ccc21 [Compound 3, 5-((5-bromo-2-(1-cyclopropyl-2-oxo-1H-imidazo[4,5-c]pyridin-3(2H)-yl)methyl)-1H-indol-1-yl)pentanenitrile] | > 9840 | 0.452 | 
9 | CC(C)CCn1c(Cn2c(=O)n(C3CC3)c3ccncc32)cc2ccccc21 [Compound 12, 1-cyclopropyl-3-((1-isopentyl-1H-indol-2-yl)methyl)-1H-imidazo[4,5-c]pyridin-2(3H)-one] | 65500 | 361 | 
10 | CS(=O)(=O)CCCn1c(Cn2c(=O)n(C3CC3)c3ccc(F)cc32)cc2cc(Br)ccc21 [Compound 6, 3-((5-Bromo-1-(3-(methylsulfonyl)propyl)-1H-indol-2-yl)methyl)-1-cyclopropyl-5-fluoro-1H-benzo[d]imidazol-2(3H)-one] | > 9840 | 1.6 | 
11 | CCOC(=O)c1c(Cn2c(=O)n(C3CC3)c3ccncc32)n(CCC(C)C)c2ccccc12 [Compound 18, ethyl 2-((1-cyclopropyl-2-oxo-1H-imidazo[4,5-c]pyridin-3(2H)-yl)methyl)-1-isopentyl-1H-indole-3-carboxylate] |  | 3010 | 32100
